ChEMBL document CHEMBL3217664, “Synthesis and biological evaluation of 4-chlorocolchicine derivatives as potent anticancer agents with broad effective dosage ranges” (Medchemcomm, 2012)

Experiments:
A549 = assay: Cytotoxicity against human A549 cells after 96 hrs by microplate reader analysis; format: functional, cell-based; conditions: A549, 96 h
HCT-116 [1] = assay: Cytotoxicity against human HCT116 cells after 96 hrs by microplate reader analysis; format: functional, cell-based; conditions: HCT-116, 96 h
HT-29 = assay: Cytotoxicity against human HT-29 cells after 96 hrs by microplate reader analysis; format: functional, cell-based; conditions: HT-29, 96 h
Mus musculus [2] = assay: Toxicity in BALB/c mouse assessed as mortality at 7.5 mg/kg/day, iv administered on day 1, 5 and 9; format: organism-based; set-up: route intravenous; conditions: in vivo
Mus musculus [3] = assay: Toxicity in BALB/c mouse assessed as mortality at 1.875 mg/kg/day, iv administered on day 1, 5 and 9; format: organism-based; set-up: route intravenous; conditions: in vivo
HCT-116 [4] = assay: Antitumor activity against human HCT116 cells xenografted in BALB/c mouse assessed as tumor growth inhibition at 3.75 mg/kg/day, iv administered on day 1, 5 and 9 relative to control; format: functional; conditions: HCT-116, 24 h, read-out: TGI
HCT-116 [5] = assay: Antitumor activity against human HCT116 cells xenografted in BALB/c mouse assessed as tumor growth inhibition at 1.875 mg/kg/day, iv administered on day 1, 5 and 9 relative to control; format: functional; conditions: HCT-116, 24 h, read-out: TGI
HCT-116 [6] = assay: Antitumor activity against human HCT116 cells xenografted in BALB/c mouse assessed as tumor growth inhibition at 15 mg/kg/day, iv administered on day 1, 5 and 9 relative to control; format: functional; conditions: HCT-116, 24 h, read-out: TGI
HCT-116 [7] = assay: Antitumor activity against human HCT116 cells xenografted in BALB/c mouse assessed as tumor growth inhibition at 7.5 mg/kg/day, iv administered on day 1, 5 and 9 relative to control; format: functional; conditions: HCT-116, 24 h, read-out: TGI
Mus musculus [8] = assay: Toxicity in BALB/c mouse assessed as mortality at 15 mg/kg/day, iv administered on day 1, 5 and 9; format: organism-based; set-up: route intravenous; conditions: in vivo
Liver = assay: Metabolic stability in BALB/c mouse liver microsomes at 1 umol/l by LC-MS/MS analysis; format: ADME; conditions: 1 µM
Mus musculus [9] = assay: Toxicity in BALB/c mouse assessed as mortality at 3.75 mg/kg/day, iv administered on day 1, 5 and 9; format: organism-based; set-up: route intravenous; conditions: in vivo

| SMILES | IC50 (A549) | IC50 (HCT-116 [1]) | IC50 (HT-29) | other results |
| --- | --- | --- | --- | --- |
| COc1c(Cl)c2c(c(OC)c1OC)-c1ccc(OC)c(=O)cc1[C@@H](NC(=O)c1ccc(C#N)cc1)CC2 | 11.9 nM | 6.7 nM | 6.7 nM |  |
| COc1c(Cl)c2c(c(OC)c1OC)-c1ccc(OC)c(=O)cc1[C@@H](NC(C)=O)CC2 |  |  |  | Activity (Mus musculus [2]): Non-toxic; Activity (Mus musculus [3]): Non-toxic; inhibition in vivo at 3.75 mg/kg/day (HCT-116 [4]): 56.4%; inhibition in vivo at 1.875 mg/kg/day (HCT-116 [5]): 36.7%; inhibition in vivo at 15 mg/kg/day (HCT-116 [6]): 76.5%; inhibition in vivo at 7.5 mg/kg/day (HCT-116 [7]): 62.6%; Activity (Mus musculus [8]): Non-toxic; Stability (Liver): 28 µL/min/mg; Activity (Mus musculus [9]): Non-toxic |
| COc1cccc(C(=O)N[C@H]2CCc3c(Cl)c(OC)c(OC)c(OC)c3-c3ccc(OC)c(=O)cc32)c1 | 2.7 nM | 1.6 nM | 1.4 nM |  |
| COc1c(Cl)c2c(c(OC)c1OC)-c1ccc(OC)c(=O)cc1[C@@H](NC(=O)c1ccccc1)CC2 | 4.7 nM | 1.4 nM | 1.6 nM |  |
| CCC(O)(CC)C(=O)N[C@H]1CCc2c(Cl)c(OC)c(OC)c(OC)c2-c2ccc(OC)c(=O)cc21 | 38 nM | 38.7 nM | 36.5 nM |  |
| COc1c(Cl)c2c(c(OC)c1OC)-c1ccc(OC)c(=O)cc1[C@@H](NC(=O)CN(C)C)CC2 | 160 nM | 67 nM | 46 nM |  |
| COc1c(Cl)c2c(c(OC)c1OC)-c1ccc(OC)c(=O)cc1[C@@H](NC(=O)c1ccccc1N(C)C)CC2 | 206 nM | 171 nM | 186 nM |  |
| COc1c(Cl)c2c(c(OC)c1OC)-c1ccc(OC)c(=O)cc1[C@@H](NC(=O)CC(C)C)CC2 | 40.3 nM | 23.7 nM | 16.1 nM |  |
| COc1cc(C(=O)N[C@H]2CCc3c(Cl)c(OC)c(OC)c(OC)c3-c3ccc(OC)c(=O)cc32)cc(OC)c1OC | 124 nM | 51.7 nM | 47.7 nM |  |
| COc1c(Cl)c2c(c(OC)c1OC)-c1ccc(OC)c(=O)cc1[C@@H](NC(=O)c1cccc(C#N)c1)CC2 | 7.4 nM | 4.1 nM | 1.6 nM |  |
| COc1ccc(C(=O)N[C@H]2CCc3c(Cl)c(OC)c(OC)c(OC)c3-c3ccc(OC)c(=O)cc32)c(OC)c1 | 85.4 nM | 57.3 nM | 53.1 nM |  |
| COc1c(Cl)c2c(c(OC)c1OC)-c1ccc(OC)c(=O)cc1[C@@H](NC(=O)c1ccc(F)cc1)CC2 | 6.7 nM | 5.5 nM | 2.2 nM |  |
| COc1ccc(C(=O)N[C@H]2CCc3c(Cl)c(OC)c(OC)c(OC)c3-c3ccc(OC)c(=O)cc32)cc1 | 3.8 nM | 8 nM | 8 nM |  |
| COc1c(Cl)c2c(c(OC)c1OC)-c1ccc(OC)c(=O)cc1[C@@H](NC(=O)CCC(=O)O)CC2 | > 5 µg/mL | 6580 nM | 6270 nM |  |
| COc1c(Cl)c2c(c(OC)c1OC)-c1ccc(OC)c(=O)cc1[C@@H](NC(=O)c1ccccc1F)CC2 | 1.7 nM | 1.6 nM | 1.5 nM |  |
| COc1c(Cl)c2c(c(OC)c1OC)-c1ccc(OC)c(=O)cc1[C@@H](NC(=O)[C@@H](C)O)CC2 | 19.5 nM | 7.7 nM | 7.2 nM |  |
| COc1c(Cl)c2c(c(OC)c1OC)-c1ccc(OC)c(=O)cc1[C@@H](NC(=O)c1cccc(F)c1)CC2 | 3.5 nM | 1.6 nM | 1.5 nM |  |
| COc1c(Cl)c2c(c(OC)c1OC)-c1ccc(OC)c(=O)cc1[C@@H](NC(=O)c1cc([N+](=O)[O-])cc([N+](=O)[O-])c1)CC2 | 31.2 nM | 6.8 nM | 5 nM |  |
| COc1c(Cl)c2c(c(OC)c1OC)-c1ccc(OC)c(=O)cc1[C@@H](NC(=O)CS)CC2 | 400 nM | 192 nM | 209 nM |  |
